Columns and labels:
[1] = molecular target: T1, AR splice variant 7 (AR-V7) (Homo sapiens, UniProt P10275); experiment: Degradation experiment on AR splice variant 7 (AR-V7) in 22RV1 cells; type: cell-based; conditions: 24 h
T1 construct: host or cells: 22RV1 prostate cancer cells
T1 sequence (P10275 1-644 isoform P10275-3): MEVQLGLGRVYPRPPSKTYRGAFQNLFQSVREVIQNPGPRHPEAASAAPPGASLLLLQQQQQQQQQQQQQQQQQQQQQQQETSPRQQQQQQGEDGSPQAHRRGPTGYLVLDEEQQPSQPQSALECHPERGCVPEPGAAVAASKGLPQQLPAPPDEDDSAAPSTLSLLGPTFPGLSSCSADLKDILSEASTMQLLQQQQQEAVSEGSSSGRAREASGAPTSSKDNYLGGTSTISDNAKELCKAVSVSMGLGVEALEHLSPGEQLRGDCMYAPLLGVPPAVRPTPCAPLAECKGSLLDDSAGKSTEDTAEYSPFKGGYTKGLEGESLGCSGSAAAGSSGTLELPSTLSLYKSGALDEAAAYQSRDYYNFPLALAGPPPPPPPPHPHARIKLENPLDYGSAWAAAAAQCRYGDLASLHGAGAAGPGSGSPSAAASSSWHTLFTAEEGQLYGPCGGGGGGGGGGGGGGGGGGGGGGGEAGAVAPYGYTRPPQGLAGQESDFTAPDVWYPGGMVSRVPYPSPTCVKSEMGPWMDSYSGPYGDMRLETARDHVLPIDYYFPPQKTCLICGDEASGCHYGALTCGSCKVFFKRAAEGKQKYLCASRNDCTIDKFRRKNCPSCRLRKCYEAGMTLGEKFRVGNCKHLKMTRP
Description: Prostate cancer cells 22RV1 were purchased from ATCC, the cell medium was 1640+10% FBS, and the cells were cultured in an incubator at 37° C. under 5% CO2. On day 1, the cells in an exponential phase were collected. With a 1% css-FBS phenol red-free medium, the cell suspension was adjusted to a corresponding concentration and plated into a 6-well plate at 1 mL/well and 300000 cells/well. The next day, a 1% css-FBS phenol-free medium containing the compound to be tested was added, a 1% css-FBS phenol-free medium containing 0.2% DMSO was added to one well as DMSO vehicle control, and the 6-well plate was cultured in an incubator at 37° C. under 5% CO2. After 24 h, the cells were digested with pancreatin and collected into a 1.5 mL centrifuge tube. 15 μL of RIPA lysate (containing 1× protease inhibitor cocktail) was added to each well, and the cells were lysed on ice for 15 min and then centrifuged at 12000 g at 4° C.′ for 10 min. The supernatant protein samples were collected, and protein quantification was performed by a BCA method. AR-V7 was detected using fully automatic protein expression quantitative analysis, which involved diluting the protein to be tested to 2 mg/mL, 4 μL of the diluted protein samples were added to 1 μL of 5× Master Mix (provided in the kit), and the prepared samples were denatured at 95° C. for 5 min and placed on ice for use. The primary antibodies. AR V7 (CST, 19672S) and β-actin (CST, 3700), were diluted with Antibody Diluent II (provided in the kit) at a dilution ratio of 1:10 and 1:500, respectively. The secondary antibody was a mixed goat anti-mouse and goat anti-rabbit secondary antibody in a ratio of 1:1, and the color development solution was a mixed solution of Lumino-S and Peroxide in a ratio of 1:1. The prepared reagents were successively added to an assay plate according to instructions of the kit and detected on an instrument. Western blot band processing was performed using “Compass for SW”, a fully automatic protein expression quantitative analysis software, in which western blot bands were automatically simulated based on signal values. The degradation rate of AR-V7 (4) relative to vehicle control at different compound concentrations was calculated according to formula (4), wherein AR-V7compound was the relative peak area of AR-V7 in the treated group, and AR-V7solvent was the relative peak area of AR-V7 in the vehicle control group.
DC50 calculation: the compound concentration DC50 values at which the degradation rate of AR-V7 was 50% were calculated using Graphpad software and analyzed using log (inhibitor) vs. response-Variable slope (four parameters) function according to formula (4).

[2] = system: Prostate cancer cells 22RV1; experiment: Experiment on inhibiting 22RV1 cell proliferation (CellTiter-Glo, 7 days); type: cell-based; conditions: Homo sapiens, 168 h, 22RV1 cells, 7 days incubation, cells with nM printed beside the value, read-out: IC50 values for inhibition of 22RVI cells
Summary of the method: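 22RV1 cells at 2000/well in 1% charcoal-stripped-FBS phenol red-free medium, treated next day with compound for 7 days at 37 °C, 5% CO2. Viability by CellTiter-Glo luminescence; inhibition relative to DMSO vehicle, IC50 from dose-response fit.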

[3] = Pharmacokinetic test in rats; type: in vivo; conditions: rat, plasma, po, male SD rats; for bioavailability: i.g. 5 mg/kg vs intravenous 2 mg/kg; for AUC(0-t): i.g. 5 mg/kg
Description: Test objective: In this experiment, a single dose of each test compound was administered to SD rats intravenously and intragastrically, and the concentrations of the test compounds in plasma of rats were measured to evaluate the pharmacokinetic characteristics of the test compounds in rats.
Experimental animals: male SD rats, 200-250 g, 6-8 weeks old, 6 rats/compound, purchased from Chengdu Ddossy Experimental Animals Co., Ltd.
Experimental method: on the day of the test, 6 SD rats were randomly grouped according to their body weight; the animals were fasted with water available for 12 to 14 hours one day before the administration of a test compound, and were fed 4 hours after the administration.
Sampling: Before and after the administration, 0.1 mL of blood samples were drawn from the orbits of the animals under isoflurane anesthesia, and placed in an EDTAK2 centrifuge tube. Centrifugation was carried out at 5000 rpm at 4° C. for 10 min, and the plasma was collected.
Time points for plasma collection in IV&PO group: 0, 5 min, 15 min, 30 min, 1 h, 2 h, 4 h, 6 h, 8 h, and 24 h.
Before analysis and detection, all samples were stored at −60° C. The samples were analyzed quantitatively by LC-MS/MS.

With `CC(C)(C(=O)Nc1ccc(C(F)(F)F)cc1Cl)n1cc(C#CC2CN(c3ccc4c(c3)C(=O)N(C3CCC(=O)NC3=O)C4=O)C2)cn1` (stereo not drawn) [Compound 11, N-(2-chloro-4-(trifluoromethyl)phenyl)-2-(4-((1-(2-(2,6-dioxopiperidin-3-yl)-1,3-dioxoisoindolin-5-yl)azetidin-3-yl)ethynyl)-1H-pyrazol-1-yl)-2-methylpropanamide] as the molecule, how does the DC50 [1] read?
Its DC50 is < 500 nM.

And the IC50 [2]?
Its IC50 is < 50 nM.

And the bioavailability [3]?
Its bioavailability is 90.9 ± 2.4%.

What about the AUC(0-t) [3] of the same molecule?
The AUC(0-t) was 16000 ± 431 ng·h/mL.

With `CC(C)(C(=O)Nc1ccc(C(F)(F)F)cc1Cl)n1cc(C#CC2CN(c3cc4c(cc3F)C(=O)N(C3CCC(=O)NC3=O)C4=O)C2)cn1` (stereo not drawn) [Compound 15] as the molecule, how does the DC50 [1] read?
Its DC50 is < 500 nM.

What about the IC50 [2] of the same molecule?
Its IC50 is < 100 nM.

And the bioavailability [3]?
The bioavailability was 73.2 ± 10%.

What about the AUC(0-t) [3] of the same molecule?
The AUC(0-t) was 10200 ± 1460 ng·h/mL.

With `CC(C)(C(=O)Nc1ccc(C#N)c2ccccc12)n1cc(C#CC2CN(c3ccc4c(c3)C(=O)N(C3CCC(=O)NC3=O)C4=O)C2)cn1` (stereo not drawn) [Compound 21, N-(4-cyanonaphthalen-1-yl)-2-(4-((1-(2-(2,6-dioxopiperidin-3-yl)-1,3-dioxoisoindolin-5-yl)azetidin-3-yl)ethynyl)-1H-pyrazol-1-yl)-2-methylpropanamide] as the molecule, how does the DC50 [1] read?
The DC50 was < 500 nM.

What about the IC50 [2] of the same molecule?
The IC50 was < 50 nM.

What about the bioavailability [3] of the same molecule?
Its bioavailability is 69.1 ± 12%.

What about the AUC(0-t) [3] of the same molecule?
Its AUC(0-t) is 15200 ± 2610 ng·h/mL.

Which results are given for `CC(C)(C(=O)Nc1ccc(C#N)c(C2CC2)c1)n1cc(C#CC2CN(c3ccc4c(c3)C(=O)N(C3CCC(=O)NC3=O)C4=O)C2)cn1` (stereo not drawn) [Compound 29, N-(4-cyano-3-cyclopropylphenyl)-2-(4-((1-(2-(2,6-dioxopiperidin-3-yl)-1,3-dioxoisoindolin-5-yl)azetidin-3-yl)ethynyl)-1H-pyrazol-1-yl)-2-methylpropanamide]?
DC50 [1]: < 500 nM; IC50 [2]: < 100 nM; AUC(0-t) [3]: 48700 ± 7060 ng·h/mL

For `CC(C)(C(=O)Nc1ccc(C(F)(F)F)cc1C1CC1)n1cc(C#CC2CN(c3ccc4c(c3)C(=O)N(C3CCC(=O)NC3=O)C4=O)C2)cn1` (stereo not drawn) [Compound 30, N-(2-cyclopropyl-4-(trifluoromethyl)phenyl)-2-(4-((1-(2-(2,6-dioxopiperidin-3-yl)-1,3-dioxoisoindolin-5-yl)azetidin-3-yl)ethynyl)-1H-pyrazol-1-yl)-2-methylpropanamide], which DC50 [1] is on record?
The DC50 was < 500 nM.

And the IC50 [2]?
Its IC50 is < 50 nM.

And the bioavailability [3]?
Its bioavailability is 98.1 ± 6.6%.

What about the AUC(0-t) [3] of the same molecule?
Its AUC(0-t) is 22500 ± 1510 ng·h/mL.

For `CC(C)(C(=O)Nc1ccc(C#N)c2c1CCCC2)n1cc(C#CC2CN(c3ccc4c(c3)C(=O)N(C3CCC(=O)NC3=O)C4=O)C2)cn1` (stereo not drawn) [Compound 56, N-(4-cyano-5,6,7,8-tetrahydronaphthalen-1-yl)-2-(4-((1-(2-(2,6-dioxopiperidin-3-yl)-1,3-dioxoisoindolin-5-yl)azetidin-3-yl)ethynyl)-1H-pyrazol-1-yl)-2-methylpropanamide], which DC50 [1] is on record?
Its DC50 is < 500 nM.

What about the IC50 [2] of the same molecule?
The IC50 was < 50 nM.

For `CC#Cc1cc(C(F)(F)F)ccc1NC(=O)C(C)(C)n1cc(C#CC2CN(c3ccc4c(c3)C(=O)N(C3CCC(=O)NC3=O)C4=O)C2)cn1` (stereo not drawn) [Compound 118, 2-(4-((1-(2-(2,6-dioxopiperidin-3-yl)-1,3-dioxoisoindolin-5-yl)azetidin-3-yl)ethynyl)-1H-pyrazol-1-yl)-2-methyl-N-(2-(prop-1-yn-1-yl)-4-(trifluoromethyl)phenyl) propanamide], which DC50 [1] is on record?
Its DC50 is < 500 nM.

And the IC50 [2]?
Its IC50 is < 50 nM.

And the bioavailability [3]?
The bioavailability was 52.4 ± 3.1%.

And the AUC(0-t) [3]?
Its AUC(0-t) is 14000 ± 816 ng·h/mL.

Which results are given for `CC(C)(C(=O)Nc1ccc(C(F)(F)F)cc1-c1nccs1)n1cc(C#CC2CN(c3ccc4c(c3)C(=O)N(C3CCC(=O)NC3=O)C4=O)C2)cn1` (stereo not drawn) [Compound 155, 2-(4-((1-(2-(2,6-dioxopiperidin-3-yl)-1,3-dioxoisoindolin-5-yl)azetidin-3-yl)ethynyl)-1H-pyrazol-1-yl)-2-methyl-N-(2-(thiazol-2-yl)-4-(trifluoromethyl)phenyl) propanamide]?
DC50 [1]: < 500 nM; IC50 [2]: < 50 nM; bioavailability [3]: 37.9 ± 2.2%; AUC(0-t) [3]: 12000 ± 711 ng·h/mL

What does the source list for `N#Cc1nn(C2(C(=O)Nc3ccc(C(F)(F)F)cc3Cl)CCC2)cc1C#CC1CN(c2ccc3c(c2)C(=O)N(C2CCC(=O)NC2=O)C3=O)C1` (stereo not drawn) [Compound 160, N-(2-chloro-4-(trifluoromethyl)phenyl)-1-(3-cyano-4-((1-(2-(2,6-dioxopiperidin-3-yl)-1,3-dioxoisoindolin-5-yl)azetidin-3-yl)ethynyl)-1H-pyrazol-1-yl)cyclobutane-1-carboxamide]?
DC50 [1]: < 500 nM; IC50 [2]: < 50 nM

With `Cc1nn(C2(C(=O)Nc3ccc(C(F)(F)F)cc3Cl)CCC2)cc1C#CC1CN(c2ccc3c(c2)C(=O)N(C2CCC(=O)NC2=O)C3=O)C1` (stereo not drawn) [Compound 164, N-(2-chloro-4-(trifluoromethyl)phenyl)-1-(4-((1-(2-(2,6-dioxopiperidin-3-yl)-1,3-dioxoisoindolin-5-yl)azetidin-3-yl)ethynyl)-3-methyl-1H-pyrazol-1-yl)cyclobutane-1-carboxamide] as the molecule, how does the DC50 [1] read?
The DC50 was < 500 nM.

And the IC50 [2]?
Its IC50 is < 50 nM.

From patent US20250171417A1, “HETEROCYCLIC DERIVATIVE, AND COMPOSITION AND PHARMACEUTICAL USE THEREOF” (Xizang Haisco Pharmaceutical Co., Ltd., priority 2021, published 2025)
